Patent EP3275863A1, “COMPOUNDS FOR TREATING CONGENITAL DISORDERS OF GLYCOSYLATION” (Universidad Autónoma de Madrid, priority 2016, dated 2018)

What was measured:
WT-PMM2 = target: T1, WT-PMM2 (Homo sapiens, UniProt O15305); test: High-throughput differential scanning fluorimetry (DSF) screening, thermal denaturation; type: binding; conditions: 0.08 mg/mL of compound, 4% DMSO, vs DMSO control; read-out: protein Tm is increased (ΔTm)
T1 construct: His6 (N); made in house; host or cells: E. coli BL21 Star DE3
T1 sequence (O15305 1-246): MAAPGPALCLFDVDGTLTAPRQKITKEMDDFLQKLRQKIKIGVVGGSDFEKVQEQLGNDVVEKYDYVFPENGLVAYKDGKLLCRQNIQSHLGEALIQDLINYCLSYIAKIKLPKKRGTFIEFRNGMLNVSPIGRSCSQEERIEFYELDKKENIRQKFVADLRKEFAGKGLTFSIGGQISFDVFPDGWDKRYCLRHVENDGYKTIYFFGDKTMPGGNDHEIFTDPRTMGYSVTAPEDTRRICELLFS
Method: 10,000 molecular compounds from the MyriaScreen (Sigma-Aldrich) diversity collection were screened by determining the stabilization induced by the binding of different ligands (potential pharmacological chaperones) to the purified recombinant protein. The identification of ligands that stabilize WT-PMM2 thermally, was done by monitoring the thermal denaturation. The screening was performed by monitoring a shift in the fluorescence intensity at 610 nm using the LightCycler A480 (Roche).
PMM2 proteins were expressed in E.coli (BL21 Star™DE3 One Shot® Invitrogen). […]
Protein purification was performed using the ÄKTA Prime System (GE Healthcare, Little Chalfont, UK) at 4°C. […] The pure protein concentration was estimated by measuring the absorbance at 280 nm in a Nanodrop spectrophotometer (Thermo Scientific, Waltham, MA, USA) using the theoretical molar extinction coefficient estimated from the amino acid composition of HisPMM2 (23755 M^-1 cm^-1).
10,000 compounds of molecular weight ranging from 220 to 547 Da from the MyriaScreen diversity collection, dissolved in DMSO (Sigma Aldrich, St. Louis, MO, USA) to a final concentration of 2 mg/mL, were screened by DSF for identification of ligands that stabilize WT-PMM2 thermally. […] The experimental unfolding curves were then smoothed, normalized, and analyzed using in-house software. […]

[1] = system: WT-PMM2 and mutants p.Asp65Tyr, p.Pro113Leu, p.Arg162Trp and p.Thr237Met; test: Degradation time course (half-life) in prokaryotic transcription-translation-coupled system; type: biochemical, human; conditions: mutant proteins with compound at the tested concentrations
Method: In order to deepen in the effect of Compound A on the PMM2 stability, degradation time courses were analyzed on WT protein and folding mutants with residual activity, p.Asp65Tyr, p.Arg162Trp and p.Thr237Met in presence of the compound. Additionally, we included in this assay the dimeric mutant p.Pro113Leu in order to study the effect of the compound on a mutant of this type.
Dimeric PMM2 used for thermal stability analysis was produced by the RTS 100 E. coli HY Kit transcription-translation-coupled system (5 PRIME, Hilden, Germany), following the manufacturer's recommendations. To produce PMM2 proteins, the reaction mix provided by the kit, together with 500 ng of the corresponding expression vector and 1 µl of the compound for reaching a final concentration of 40µM or 80µM or 1µl of DMSO. Reactions were incubated for 30 min at 30°C. The reaction was then stopped by adding 1 µl of DNase (1 mg/mL) and 1 µl of RNase (1 mg/mL). It was then further incubated at 37°C and 1.5 µl aliquots removed at different times. The compound was therefore present during the folding process. Proteins were immunodetected by Western blot and relative amounts of protein were determined by densitometry for the half-life determination.

O=C(Nc1cccc(Cl)c1)N(c1ccccn1)c1ccccn1 [Compound A, 3-(3-Chloro-phenyl)-1,1-di-pyridin-2-yl-urea]
ΔTm at 80 µg/mL (WT-PMM2): 1.1 °C
half-life of the mutant proteins compared with WT-PMM2 [1]: longer half-life than that recorded for the WT-PMM2
